Patent US9446031B2, “Compositions and methods for neovascularization” (National University of Singapore, priority 2012, dated 2016)
Entries after “also recorded” stand apart in the source; their conditions may differ.

Legend:
Format in all cases: cell-based, human
HUVEC = assay: Proteome profiler of angiogenic proteins secreted by endothelial cells; conditions: single agent compared with CPX+S1P
From the text: (§1) FIG. 4: CPX and S1P induce secretion of different angiogenic proteins by endothelial cells and fibroblasts. […] (E) and (J): representative images of 3 proteomic profiler membranes showing differences in protein secretion between CPX and S1P treated group and non-treated group (culture media control). (K) and (L): ELISA quantitation of PlGF and VEGF corroborating semi-quantitative results shown in A-I. The negative values in the plots denote the cellular uptake of the measured proteins as opposed to secrete them. * p<0.05 As the experimental set-up favoured soluble factors as messengers between the two cell types the secretion of angiogenic factors by fibroblasts and endothelial cells in the presence of CPX and S1P, respectively, was assessed. Proteome profiler data indicated the increased secretion of several proteins including PlGF (6 fold), IL-8 (3 fold), EGF (2.9 fold) and endothelin-1 (1.5 fold) by CPX+S1P by endothelial cells.

IMR-90 fibroblasts = assay: Proteome profiler of angiogenic proteins secreted by fibroblasts; conditions: single agent compared with CPX+S1P
From the text: as §1, with “In fibroblasts, CPX+S1P expression” for “Proteome profiler data indicated the increased secretion”, “HGF (1.4” for “several proteins including PlGF (6”, “IGFBP-2 (1.8” for “IL-8 (3”, “uPA (1.6” for “EGF (2.9”, “VEGF (11 fold). […] In fibroblasts an increase of VEGF secretion which was 1819±754.1 (±standard error) pg/ml-Million cell-day was confirmed.” for “endothelin-1 (1.5 fold) by CPX+S1P by endothelial cells.”

IMR90 cells = assay: ELISA of MCP-1 secreted by IMR90 cultured in EC conditioned medium
Protocol: FIG. 5: Endothelial CM modulates growth factor secretion by fibroblasts. (A) ELISA: fibroblasts secrete 5 times more MCP-1 cultured in EC CM. […] (B) and (C): semi-quantitative proteomic array plots showing clearance of EC secreted endothelin-1 and EGF from culture media in the presence of fibroblasts. […] To study the influence of endothelial cells on fibroblasts IMR90 cells were cultured in EC conditioned medium with or without the addition of CPX+S1P, and quantified factors secreted by fibroblasts by ELISA. […] Endothelial cell CM induced the secretion of MCP-1 by fibroblasts by 3-fold in the absence of any CPX+S1P induction, however, the combination of both pharmacological agents increased MCP-1 secretion by a further 20%.

endothelia (HUVEC) = assay: ELISA quantitation of PlGF secretion by endothelial cells
From the text: (§2) FIG. 4: CPX and S1P induce secretion of different angiogenic proteins by endothelial cells and fibroblasts. […] (E) and (J): representative images of 3 proteomic profiler membranes showing differences in protein secretion between CPX and S1P treated group and non-treated group (culture media control). (K) and (L): ELISA quantitation of PlGF and VEGF corroborating semi-quantitative results shown in A-I. The negative values in the plots denote the cellular uptake of the measured proteins as opposed to secrete them. * p<0.05 In fibroblasts, CPX+S1P expression of HGF (1.4 fold), IGFBP-2 (1.8 fold), uPA (1.6 fold) and VEGF (11 fold). […] In fibroblasts an increase of VEGF secretion which was 1819±754.1 (±standard error) pg/ml-Million cell-day was confirmed.

fibroblasts (IMR-90) = assay: ELISA quantitation of VEGF secretion by fibroblasts
From the text: as §2

| Compound | increased secretion of PlGF, IL-8, EGF and endothelin-1 by endothelial cells, single agent (HUVEC) | increased secretion of HGF, IGFBP-2, uPA and VEGF by fibroblasts, single agent (IMR-90 fibroblasts) | effect on MCP-1 secretion by fibroblasts, monosubstance (IMR90 cells) | effect on PlGF secretion rate (endothelia (HUVEC)) | effect on VEGF secretion (fibroblasts (IMR-90)) |
| --- | --- | --- | --- | --- | --- |
| Cc1cc(C2CCCCC2)n(O)c(=O)c1 [CPX, ciclopirox olamine] | Highly comparable increases; also recorded: main compound causing the observed upregulation | Highly comparable increases; also recorded: main compound causing the observed upregulation | neither S1P nor CPX were able to increase basal MCP-1 secretion; also recorded: No significant difference | – | – |
| CCCCCCCCCCCCC/C=C/[C@@H](O)[C@@H](N)COP(=O)(O)O [S1P, sphingosine 1-phosphate] | none were observed | none were observed | neither S1P nor CPX were able to increase basal MCP-1 secretion; also recorded: No significant difference | did not show any effect | did not elicit measurable effects |
